Series [1] concerns porcine common carotid arteries. In words: Vasoconstriction immediately distal to the dilatation site, from carotid angiograms. The class given is in vivo, pig. Particulars: mean±SEM; p<0.001 vs placebo. As to the method: An 8 mm×3 cm polyethylene angioplasty catheter (Blue Max, Medi-tech, Watertown, Mass.) was advanced under fluoroscopic guidance to the left and then to the right common carotid arteries for arterial dilatation. Angioplasty was performed 30 minutes after starting treatment, between the first and third cervical vertebrae, using a standardized procedure (5 inflations of 30 seconds duration at 7 atmospheres, with 60 seconds between inflations). Carotid angiography was performed by injecting 6 ml of ionic contrast material (Renografin 76, Squibb, Princeton, N.J.) just prior to carotid dilatation, using a catheter (8 F) with a metal ring of known dimension (Cordis Corporation, Miami, Fla.). Spot films were also taken during balloon dilatation. […]
The severity of localized vasoconstriction was determined immediately distal to the dilatation site from angiograms of the common carotid arteries obtained before and after the dilatation procedure. Computer-assisted planimetry was used to measure the mean maximal narrowing in lumen diameter before and after the procedure, expressed as a percentage of the respective arterial dimension before dilatation (J. Y. T. Lam et al., “Is Vasospasm Related to Platelet Deposition? Relationship in a Porcine Preparation of Arterial Injury in Vivo,” Circulation 75: 243-248 (1987)).

Series [2] relates to solid tumors in the mouse. Particulars: mice; cited from earlier work.
Series [3] relates to deeply injured porcine carotid artery. In words: Platelet and fibrin(ogen) deposition and mural thrombus after deep arterial injury by balloon angioplasty. The class given is in vivo, pig. As to the method:
(§1) Twenty normal pigs of Babcock 4-way cross stock (a mixture of Landrace, Yorkshire, Hampshire, and Durock breeds) approximately 4 months old with a mean weight of 40±1 kg (approximately 1 m^2 body surface area) (P. L. Altman & D. S. Dittmer, “Metabolism” in Biological Handbooks (Federation of American Societies for Experimental Biology, Bethesda, Md., 1968), pp. 346-348), were obtained from local farmers. […] Loading dose and maintenance infusion were calculated based on preliminary pharmacokinetic experiments in pigs.
The model of deep arterial injury in the porcine carotid artery has been described in detail previously (P. M. Steele et al., “Balloon Angioplasty: Natural History of the Pathophysiologic Response to Injury in a Pig Model,” Cir. Res. 57: 105-112 (1985); M. Heras et al., “Hirudin, Heparin, and Placebo During Deep Arterial Injury in the Pig. The in Vivo Role of Thrombin in Platelet-Mediated Thrombosis,” Circulation 82: 1476-1484 (1990); J. Y. T. Lam et al., “Is Vasospasm Related to Platelet Deposition? Relationship in a Porcine Preparation of Arterial Injury in Vivo,” Circulation 75: 243-248 (1987)). Autologous platelets were labeled with […] of ^111Indium-tropolone and reinjected together with […] of ^125Iodine-labeled porcine fibrinogen on the day prior to the procedure M. Heras et al., “Hirudin, Heparin, and Placebo During Deep Arterial Injury in the Pig. The in Vivo Role of Thrombin in Platelet-Mediated Thrombosis,” Circulation 82: 1476-1484 (1990); J. Y. T. Lam et al., “Is Vasospasm Related to Platelet Deposition? Relationship in a Porcine Preparation of Arterial Injury in Vivo,” Circulation 75: 243-248 (1987); J. Mruk et al., “Does Anti-Thrombotic Therapy Influence Residual Thrombus After Thrombolysis of Platelet-Rich Thrombus?,” Circulation 93: 792-799 (1996)). On the day of surgery, the pigs were sedated with 1 g intramuscular ketamine (Ketaset, Bristol Laboratories, Syracuse, N.Y.), intubated and mechanically ventilated with room air (Harvard respirator, Harvard Apparatus, South Natick, Mass.). Anesthesia was maintained with a continuous infusion of etomidate (Abbott Laboratories, North Chicago, Ill.) 40 mg/l, fentanyl (Elkins-Sinn, Inc., Cherry Hill, N.J.) 10 mg/l, and ketamine 1,000 mg/l, at about 5 ml/minute. The ECG and intra-arterial pressure were continuously monitored throughout the procedure.
The left femoral vein and artery and the right femoral vein were dissected. A 9 F sheath was placed in the left femoral artery, and 14 gauge angiocaths were inserted in the left and right femoral veins. […] All the lines for blood sampling were continuously flushed with 0.9% saline. […]

Series [4] can be described thus: Laboratory tests: aPTT and ear bleeding time. The class given is in vivo, pig. As to the method: The left femoral vein and artery and the right femoral vein were dissected. A 9 F sheath was placed in the left femoral artery, and 14 gauge angiocaths were inserted in the left and right femoral veins. […] All the lines for blood sampling were continuously flushed with 0.9% saline.
(§2) All blood samples were collected with the 2-syringe technique (0.13 M trisodium citrate as anticoagulant; anticoagulant:blood=1:10). […] Platelet count, hematocrit, aPTT, and fibrinogen were determined using standard laboratory methods (Mayo Clinic, Clinical Laboratories). […] Assays were performed as a single batch. The method of determination of FAA in plasma was that of L. Malspeis (personal communication). Briefly, plasma (0.25-0.50 ml) was diluted to 1 ml with 0.5 ml of 0.5 M sodium acetate (pH 3.0) and normal saline. After addition of diethyl ether (4 ml) tubes were shaken on a mechanical shaker for 15 minutes. Following low speed centrifugation, the ether phase was evaporated to dryness under a stream of nitrogen and the residue dissolved in mobile solvent prior to HPLC analysis. Samples were analyzed by reversed-phase HPLC on an IBM C18 (10 micron) column with a mobile solvent of methanol/water mixture. Detection was by UV absorbance at 254 nm. Standard curves were prepared by adding known amounts of FAA to blood blank plasma and analyzing as described above.

Series [5] relates to human platelet-rich plasma. Particulars: cited from earlier work.
A short description of series [6]: FAA pharmacokinetics and plasma levels in pigs (HPLC). The class given is in vivo, pig. The procedure:
as §1, §2
The intravenous bolus and continuous infusion doses to maintain a plasma concentration of 500 μg/ml calculated from these values, were 5.5 gm/m^2 and 140 mg/min/m^2, respectively.

In general, half-life refers to the time needed for the level to fall by half in the phase considered. A lower half-life goes with fast loss. Regarding `O=C(O)Cc1cccc2c(=O)cc(-c3ccccc3)oc12` [FAA, flavone-8-acetic acid], the “Vasoconstriction immediately distal to the area of dilatation” value in series [1] was 15±3%. For the same compound, the “Implantation of solid tumors” value in series [2] is on record as “inhibits implantation of solid tumors in mice”. In addition, in series [3] (deeply injured segments, mean±SEM, p=0.08 vs placebo), the “Fibrin(ogen) deposition” value was 40±8 ×10^12 molecules/cm^2. The “Incidence of very small mural thrombi, treated pigs” value in series [3] (per animal, p=0.005, large thrombi in all placebo pigs) is 40%. Moreover, the “Incidence of very small thrombi, deeply injured segments” value in series [3] (per deeply injured segment, placebo 85% large thrombi) is recorded as 30%. Besides, in series [3] (pigs, FAA bolus 5.5 g/m^2 then infusion 0.14 g/m^2/minute, mean±SEM, p=0.001 vs placebo), the “Platelet deposition in deeply injured segments” value is 13±3 ×10^6/cm^2. In addition, the “Bleeding time after FAA in 4 of the animals” value in series [4] (4 of 5 animals, 210 seconds = 2 standard deviations above the mean laboratory value) is listed as “more than 210 seconds”. Further, the “Bleeding time after FAA” value in series [4] (5 animals, 30 minutes after starting infusion, before FAA 157±29 seconds) is 522 ± 123 s. Moreover, the “Ristocetin-induced platelet aggregation (vWF-GP Ibα-dependent)” value in series [5] (FAA administered to patients with cancer) was “inhibited”. The “Aggregation induced by ADP, collagen, arachidonic acid and adrenalin” value in series [5] (ex vivo and in vitro, human platelet-rich plasma) was “not inhibited”. Further, the “Plasma ristocetin cofactor activity” value in series [5] (human) was “unchanged”. Besides, the concentration at 30 min in series [6] (Babcock 4-way cross (Landrace, Yorkshire, Hampshire, Durock), pig, plasma, intravenous, 30 minutes after starting bolus 5.5 g/m^2 plus infusion 0.14 g/m^2/minute) came to 515 ± 23 µg/mL. Besides, the “Plasma level of FAA at the end of the procedure” value in series [6] (bolus 5.5 g/m^2 plus infusion 0.14 g/m^2/minute) was found to be 575 ± 36 µg/mL. Also, the half-life in series [6] (pig, plasma, two animals, intravenous bolus 1 gm/m^2, one compartment open model) came out at 27.9 min. The Plasma clearance in series [6] (two animals, intravenous bolus 1 gm/m^2, one compartment open model) is 279 ml/min/m^2.

(Values after US6559133B2, “Use of flavone 8-acetic acid in vascular and cardiovascular interventions and acute coronary syndromes” (priority 2000, dated 2003).)
